Results on 1 compound are retold here after US20090221538A1, “METHODS OF TREATING MULTIPLE SCLEROSIS BY ADMINISTERING PULSE DOSE CALCITRIOL” (priority 2008, published 2009).

Data set [1] relates to splenocytes. As to the kind of experiment: Splenocyte staining and FACS analysis after pulse dose. In kind it is in vivo, mouse. On the procedure:
For flow cytometric analysis, splenocytes were dissociated into ice-cold Hank's balanced salt solution with HEPES buffer, and RBC were depleted. Duplicate samples (10^6 cells/sample) were stained (30-45 min on ice) with optimal amounts of the mAb conjugates in staining buffer (PBS pH 7.3 with 5% heat-inactivated FBS and 0.1% NaN3). Reference samples stained with single-color mAb served as controls to select fluorescence gates and flow cytometer compensation. The fluorescent mAb conjugates used for this analysis were FITC-labeled mAb to CD4 (clone L3T4) and APC-labeled mAb to CD11b (clone Macla) from Southern Biotechnology, and PE-labeled mAb to CD8 (clone alpha) and biotin-labeled mAb to CD45R (B220) from Invitrogen. PerCP-Cy5.5 was from BD/Pharmingan. Stained samples were analyzed on a FACScalibur™ using CELLQuest™ software (BD Biosciences, Franklin Lakes, N.J.).

In data set [2] the test system is EAE. As to conditions: mouse, in vivo; cited from earlier work.
[3] abbreviates: splenocytes 14 days after a 175 ng pulse dose, no significant differences from normal control mice.

The structures appear in SMILES notation. “Also recorded” adds a separate entry of the source.

As for `C=C1/C(=C\C=C2/CCC[C@]3(C)[C@@H]([C@H](C)CCCC(C)(C)O)CC[C@@H]23)C[C@@H](O)C[C@@H]1O` [1,25-(OH)2D3, 1,25-dihydroxy vitamin D3], the “numbers of splenocytes recovered” value in data set [1] (14 days after a 175 ng pulse dose, no significant differences from normal control mice) is listed as 43±9 million cells. For the same compound, in data set [1] (B10.PL mice with EAE, 175 ng pulse dose, two weeks post treatment), the “depletion of splenic lymphocytes and monocytes / immunodeficient state” value is “did deplete; also recorded: did not result in an immunodeficient state”. Further, in data set [1] (setting [3]), the “proportion of B220+ B lymphocytes” value was found to be 63±3%, the “proportion of CD4+ T lymphocytes” value came out at 18±1%, the “proportion of CD8+ T lymphocytes” value worked out at 11±1% and the “proportion of CD11b+ monocytes” value amounted to 18±2%. For the same compound, in data set [2], the EAE disease induction entry is recorded as “strongly inhibited”, the EAE progression result was “prevented progression” and the “established EAE disease” value is “reversed established disease”.
